The values that follow are results of earlier work, collected in patent US11547680B2, “Benzalkonium-embedded mesostructured silica compositions and uses of same” (RUTGERS, THE STATE UNIVERSITY OF NEW JERSEY, priority 2018, dated 2023).

For this data set the following is noted: aqueous solution.

Regarding benzalkonium chloride [BAC], the “critical micelle concentration (CMC)” value is recorded as “ca. 0.5 mM”.
